pEC50, pKi: −log10 of the molar value. Structures can show the parent of a compound that is named as a salt. Where two headings read alike, the source gives them in different places.
Key:
MK801 Stereotypy = experiment: MK-801 Stereotypy in Mice; format: in vivo; settings: Mus musculus, read-out: Antagonism of MK801 Stereotypy % Inhib. @ 20 mg/kg (route)
Method: Mk-801 dose-dependently induces characteristic stereotypy marked by locomotion and falling behavior. This MK-801 induced behavior can be antagonized by novel neuroleptic agents. This assay can also assess time course effects following drug administration.
CD-1 or C57 male mice are individually placed in activity boxes (8 mice/drug) and allowed to acclimate for 60 minutes. The mice are then administered test compounds either i.p., s.c., or p.o., at 15, 30, or 60 minutes prior to MK-801 (0.2 mg/kg) administration. Mice are observed for the presence of locomotion and falling behaviors 15 minutes following MK-801. For the duration of action studies the test compounds are administered i.p., s.c., or p.o., at 30, 60, 120, 180, and 240 minutes prior to MK-801 administration.

[1] = target: T1, human D4 receptor (D4.2 sub-type) (Homo sapiens, UniProt P21917, DEL265-296); experiment: D4 receptor binding assay (3H-spiperone displacement); settings: for pKi: 3H-spiperone 0.25 nM, membranes of HEK 298 cells with human D4.2, Cheng-Prusoff from IC50, read-out: D4 RBA Ki; for inhibition at 1 µM: 1 μM test compound, inhibition of 3H-spiperone binding, read-out: D4 RBA % Inhib. @ 1 μM
T1 construct: expressed in transfected cells
T1 sequence (P21917 with tags, fused parts or gaps DEL265-296): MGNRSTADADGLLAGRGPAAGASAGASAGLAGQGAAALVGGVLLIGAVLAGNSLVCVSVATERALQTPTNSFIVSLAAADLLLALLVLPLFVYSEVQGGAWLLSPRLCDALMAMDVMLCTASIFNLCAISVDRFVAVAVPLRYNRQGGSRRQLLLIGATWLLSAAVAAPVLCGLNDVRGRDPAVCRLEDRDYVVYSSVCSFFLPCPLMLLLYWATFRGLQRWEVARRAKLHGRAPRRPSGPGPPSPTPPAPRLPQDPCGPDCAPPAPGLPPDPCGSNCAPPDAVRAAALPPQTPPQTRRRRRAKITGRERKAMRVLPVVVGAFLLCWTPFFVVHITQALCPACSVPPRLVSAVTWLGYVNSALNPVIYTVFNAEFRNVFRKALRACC
Method: D4 receptor-binding affinities of the compounds were evaluated according to their ability to reduce binding of ^3H-spiperone as compared to the reference compound clozapine. The potency of the test compound to reduce ^3H-spiperone binding directly correlated to its binding affinity for the receptor.
[…] (human embryonic kidney) cells stably transfected with human D4 receptor (D4.2 sub-type) were grown in NUNC cell factories for 5 days (75% confluency) without a media change and removed with versene (approximately 19 mg of cells per cell factory tray). The cells were then centrifuged in a Sorval centrifuge for 10 min, 5000 rpm (GS3 rotor) and the pellets quickly frozen in liquid nitrogen and stored at −80° C. until used in binding assay. When used in the assay, cells were thawed on ice for 20 min and then 10 mL of incubation buffer (50 mM Tris, 1 mM EDTA, 4 mM MgCl2, 5 mM KCl, 1.5 mM CaCl2, 120 mM NaCl, pH 7.4) was added. The cells were then vortexed to resuspend pellet and homogenized with a Kinematica, CH-6010 Kriens-LU, homogenizer for 15 seconds at setting 7. Concentration of receptor protein was determined using the Pierce BCA assay.
The incubation was started by the addition of 100 μl (50 μg protein) membrane homogenate to a solution of 300 μl incubation buffer and 100 μl (0.25 nM final conc.) ^3H-spiperone (90 Ci/mmol, Amersham, diluted in borosilicate glass vial) in 96-well polypropylene plates (1 mL per well). The plates were vortexed and incubated at room temperature for 90 minutes. The binding reaction was stopped by filtering using a Packard Harvester. The samples were filtered under vacuum over glass fibre filter plates (Whatman GF/B) presoaked for 2 hours in 0.3% polyethylenimine (PEI) in 50 mM Tris buffer (pH 7.4). The filters were then washed 6 times with 7 mL ice cold 50 mM Tris buffer (pH 7.4). The filter plates were dried overnight and 35 μl of Microscint-O (Packard) was added. The plates were sealed and counted in the Packard Top Count (3 minutes per well).
The incubation was started by the addition of 100 μl (50 μg protein) membrane homogenate to a solution of 200 μl incubation buffer, 100 μl ^3H-spiperone (90 Ci/mmol, Amersham, diluted in borosilicate glass vial to 0.25 nM final conc.) and 100 μl (30 μM final conc.) of fresh dopamine (Research Biochemicals Inc., light protected and dissolved in incubation buffer) in 96-well polypropylene plates (1 mL per well). The plates were vortexed and incubated at room temperature for 90 minutes at which time the binding reaction was stopped by filtering. The filters were washed and counted using the same procedure as in the total binding assay described above to give the nonspecific binding value (NSB).
The incubation was started by the addition, in 96-well polypropylene plates (1 mL per well), of 100 μl (50 μg protein) membrane homogenate to a solution of 200 μl incubation buffer, 100 μl (0.25 nM final conc.) ^3H-spiperone (90 Ci/mmol, Amersham, diluted in borosilicate glass vial) and 100 μl of test compound that was prepared from 1 mM stock dissolved in DMSO and stored at −20° C. in polypropylene cryogenic storage vials until dilution in incubation buffer in 96-well polypropylene plates. The plates were vortexed and incubated at room temperature for 90 minutes at which time the binding reaction was stopped by filtering. The filters were washed and counted using the same procedure as in the total binding assay described above to give the displacement binding value (BD).
The test compounds were initially assayed at 1 and 0.1 μM and then at a range of concentrations chosen such that the middle dose would cause about 50% inhibition of ^3H-spiperone binding. Specific binding in the absence of test compound (B0) was the difference of total binding (BT) minus non-specific binding (NSB) and similarly specific binding (in the presence of test compound) (B) was the difference of displacement binding (BD) minus non-specific binding (NSB). […]

[2] = target: human D4 receptor with seven repeat units (D4.7 variant); settings: read-out: EC50 of dopamine; cited from earlier work
[3] = 20 mg/kg ip, mice, MK-801 0.2 mg/kg
[4] = 20 mg/kg sc, mice, MK-801 0.2 mg/kg
[5] = 20 mg/kg po, mice, MK-801 0.2 mg/kg

| Compound | pKi [1] | melting point | other results |
| --- | --- | --- | --- |
| C[C@](O)(CNCc1ccccc1)COc1cccc(-c2noc3ccsc23)c1 [Compound 3, (2S)-(+)-1-benzylamino-2-methyl-3-(3-thieno[2,3-d]isoxazol-3-yl-phenoxy)propan-2-ol maleate] | 8.48 | – | inhibition in vivo at 20 mg/kg (MK801 Stereotypy; [3]): 37.5% |
| NCCc1ccc(O)c(O)c1 [dopamine] | – | – | pEC50 [2]: 7.40 |
| C[C@](O)(CNCc1ccc(Cl)c(Cl)c1)COc1cccc(-c2noc3ccsc23)c1 [Example 54] | 7.89 | – | inhibition in vivo at 20 mg/kg (MK801 Stereotypy; [5]): 62.5% |
| Cc1ccc(CNC[C@](C)(O)COc2cccc(-c3noc4ccsc34)c2)cc1 [Example 58, hydrochloride] | – | – | inhibition in vivo at 20 mg/kg (MK801 Stereotypy; po): 37.5%; inhibition at 1 µM [1]: 100% |
| C[C@](O)(CNCc1ccccc1Cl)COc1cccc(-c2noc3ccsc23)c1 [Example 53] | – | – | inhibition in vivo at 20 mg/kg (MK801 Stereotypy; [5]): 50%; inhibition at 1 µM [1]: 96% |
| C[C@@](O)(CNCc1cccs1)COc1cccc(-c2noc3ccsc23)c1.O=C(O)/C=C\C(=O)O [Example 27] | – | 120 to 121 °C | – |
| C[C@@](O)(CNCc1cccs1)COc1cccc(-c2noc3ccsc23)c1.O=C(O)/C=C\C(=O)O [Compound 5, (2R)-2-methyl-1-(3-thieno[2,3-d]isoxazol-3-yl-phenoxy)-3-[thienophen-2-ylmethyl)-amino-propan-2-ol maleate] | – | 51 to 52 °C | inhibition in vivo at 20 mg/kg (MK801 Stereotypy; [3]): 37.5% |
| C[C@@](O)(CNCc1ccc(F)cc1)COc1cccc(-c2noc3ccsc23)c1 [Example 15] | 7.96 | – | inhibition in vivo at 20 mg/kg (MK801 Stereotypy; [4]): 50% |

Second part, led by results:

| pKi [1] | melting point | Compound | other results |
| --- | --- | --- | --- |
| 8.12 | – | O[C@H](CNCc1ccsc1)COc1cccc(-c2noc3ccsc23)c1 [Example 9] | inhibition in vivo at 20 mg/kg (MK801 Stereotypy; [3]): 12% |
| 6.88 | – | OC(CNC[C@@H](O)COc1cccc(-c2noc3ccsc23)c1)c1ccccc1 (stereo partly drawn) [Example 27] | inhibition in vivo at 20 mg/kg (MK801 Stereotypy; [4]): 75% |
| – | 87 to 89 °C | N#Cc1ccccc1N1CCN(C[C@@H](O)COc2cccc(-c3noc4ccsc34)c2)CC1 [Example 50, 2-{4-[(R)-2-hydroxy-3-(3-thieno[2,3-d]isoxazol-3-yl-phenoxy)-propyl]piperazin-1-yl}benzonitrile] | – |
| 7.42 | – | C[C@@](O)(CNCc1ccccc1)COc1cccc(-c2noc3ccsc23)c1 [Compound 4, (2R)-(−)-1-benzylamino-2-methyl-3-(3-thieno[2,3-d]isoxazol-3-yl-phenoxy)propan-2-ol maleate] | inhibition in vivo at 20 mg/kg (MK801 Stereotypy; [3]): 12.5% |
| – | 225 to 227 °C | O[C@@H](COc1cccc(-c2noc3ccsc23)c1)CN1CCN(Cc2ccc3c(c2)OCO3)CC1 (as salt: hydrochloride) [Example 51, (2R)-1-(4-benzo[1,3]dioxol-5-ylmethyl-piperazin-1-yl)-3-(3-thieno[2,3-d]isoxazol-3-yl-phenoxy)propan-2-ol] | – |
| – | 127 to 129 °C | O[C@@H](COc1cccc(-c2noc3ccsc23)c1)CN1CCN(c2ccccc2)CC1 [Example 49, (2R)-1-(4-phenylpiperazin-1-yl)-3-(3-thieno[2,3-d]isoxazol-3-yl-phenoxy)propan-2-ol] | – |
| – | 97 to 99 °C | O[C@@H](COc1cccc(-c2noc3ccsc23)c1)CN1CCN(c2n[nH]c3cc(F)ccc23)CC1 [Example 11, (2R)-1-[4-(6-fluoro-1H-indazol-3-yl)-piperazin-1-yl]-3-(3-thieno[2,3-d]isoxazol-3-yl-phenoxy)-propan-2-ol] | – |
| – | 96 to 99 °C | O[C@@H](COc1cccc(-c2noc3ccsc23)c1)CN1CCN(c2ccccc2F)CC1 [Example 44, (2R)-1-[4-(2-fluorophenyl)piperazin-1-yl]-3-(3-thieno[2,3-d]isoxazol-3-yl-phenoxy)-propan-2-ol] | – |
| 7.90 | – | O[C@H](CNCc1cccs1)COc1cccc(-c2noc3ccsc23)c1 [Compound 6, (2R)-1-(3-thieno[2,3-d]isoxazol-3-yl-phenoxy)-3-[(thiophen-2-ylmethyl)amino]propan-2-ol L-tartrate] | inhibition in vivo at 20 mg/kg (MK801 Stereotypy; [3]): 25% |
